This is an account of results in patent US20250228235A1, “METHODS TO IMPROVE ORRGAN VIABILITY” (Mallinckrodt Pharmaceuticals Ireland Limited, priority 2017, published 2025).

The subject of one test is 4-week-old swine. The test can be described thus: Blinded, randomized, controlled pediatric swine asphyxial model of cardiac arrest (survival, cerebral blood flow, hemodynamics). In kind it is in vivo. The text has this: (§1) Neurologic injury following pediatric cardiac arrest (CA) remains common. Inhaled nitric oxide (iNO) may mitigate cerebral mitochondrial dysfunction, a critical convergence point for secondary brain injury, triggered by CA. It was hypothesized that following asphyxia and cardiac arrest, animals treated with 20 ppm iNO during CPR and four hours post-return of spontaneous circulation (ROSC) will have improved cerebral blood flow (CBF) and improved mitochondrial function as defined by increased respiratory control ratio (RCR) and decreased mitochondrial reactive oxygen species (mtROS) compared with placebo.
(§2) 4-week-old swine received 7 minutes of asphyxia, then ventricular fibrillation. Guideline CPR was performed with compression depth (CD)≥⅓ of the chest diameter and standard epinephrine continued for 10 mins or until ROSC, with protocolized post-ROSC care. In a blinded fashion, subjects were randomized (iNO 20 ppm initiated 1 minute into CPR period, n=10, or placebo, n=10). […] Baseline and continuous CBF measurements were taken using invasive clinical and non-invasive optical instrumentation. Cortical and hippocampal tissue were analyzed by high-resolution respirometry to assess mitochondrial function. T-tests and ANOVA were used where applicable. Longitudinal hemodynamic variables were compared using generalized estimating equations to control for within-subject correlation.

Test [1] deals with cerebral mitochondrial function (cortical and hippocampal tissue). The test can be described thus: High-resolution respirometry of cortical and hippocampal tissue to assess mitochondrial function after cardiac arrest. The note with it: iNO 20 ppm vs placebo. In kind it is in vivo, swine.
Source text: as §1, §2

On to `[N]=O` [iNO, nitric oxide], for which the “invasive or noninvasive CBF (cerebral blood flow)” value in the test on 4-week-old swine (during CPR and post-ROSC, iNO 20 ppm vs placebo) is “no significant differences”. For the same molecule, the survived with 4-week-old swine (iNO 20 ppm initiated 1 minute into CPR, n=10, placebo 7/10, p=0.21) was 10/10. Also, in test [1] (cortex, p<0.001), the “mtROS generation, cortex” value is reported as “significantly lower”. In addition, in test [1] (cortex, p=0.04), the “Cortex RCR (respiratory control ratio)” value was “significantly higher”. In test [1] (hippocampus, p=0.007), the “hippocampal RCR (respiratory control ratio)” value is recorded as “significantly higher”. The “mtROS generation, hippocampus” value in test [1] (hippocampus, p=0.03) is listed as “significantly lower”.
